Tests used:
Oryctolagus cuniculus = organism: Oryctolagus cuniculus; test: Tested for in vitro inhibition of calcium-dependent release of [3H]dopamine from rabbit retina; NE- No effect; assay type: functional
Melatonin receptor = Melatonin receptor (Gallus gallus, UniProt P49288+P51050+P49285); test: Binding affinity to compete for 2-[125I]iodomelatonin binding to chicken retinal membranes; parameters: species or system Retina, Membrane
[1] = molecular target: Melatonin receptor (Oryctolagus cuniculus); test: Inhibition of […] calcium dependent dopamine release from the rabbit retina.
[2] = molecular target: Melatonin receptor (Gallus gallus) (UniProt P49288+P51050+P49285); test: Relative binding affinity to chicken retinal membranes compared to 2-[125I]iodomelatonin.; details: Retina; Membrane

IC50 (Oryctolagus cuniculus)	Ki (Melatonin receptor)	IC50 [1]	Relative affinity [2]	SMILES
Not Active	–	–	–	COc1cccc2c1CC(NC(=O)Cc1ccccc1)CC2 (stereo unspecified)
–	0.23 nM	0.01 nM	0.4	COc1cc2c(CCNC(C)=O)c(C)[nH]c2c(Cl)c1Cl
–	665 nM	52 nM	1170	CC(=O)NC1CCc2ccccc2C1 (stereo unspecified)
–	420 nM	3 nM	737	COc1ccccc1CCNC(C)=O
–	581 nM	–	1020	COc1cccc(CCNC(C)=O)c1
–	121 nM	1.6 nM	212	COc1ccc2c(c1)CC(NC(C)=O)CC2 (stereo unspecified)
–	145 nM	8.1 nM	254	CCC(=O)NC1CCc2ccccc2C1 (stereo unspecified)
–	44.4 nM	1 nM	78	CCCC(=O)NC1CCc2ccccc2C1 (stereo unspecified)
–	95.1 nM	1.3 nM	167	O=C(CCl)NC1CCc2ccccc2C1 (stereo unspecified)
–	0.27 nM	–	0.47	CCC(=O)NCCc1c[nH]c2ccc(OC)cc12
–	23100 nM	22 nM	40500	COc1cccc2c1CC(NC(=O)c1ccccc1)CC2 (stereo unspecified)
–	3.6 nM	1.2 nM	6.3	CCCC(=O)NC1CCc2cccc(OC)c2C1 (stereo unspecified)
–	3.75 nM	0.063 nM	6.6	COc1cccc2c1CC(NC(=O)CCl)CC2 (stereo unspecified)
–	1950 nM	6.5 nM	3420	COc1cccc2c1CCC(NC(C)=O)C2 (stereo unspecified)
–	141 nM	2.5 nM	247	COc1cccc2c1CC(NC(=O)C1CC1)CC2 (stereo unspecified)
–	0.73 nM	–	1.28	CCCC(=O)NCCc1c[nH]c2ccc(OC)cc12
–	312 nM	7.9 nM	547	COc1cccc2c1CC(NC(=O)C(C)C)CC2 (stereo unspecified)

SMILES	IC50 (Oryctolagus cuniculus)	Ki (Melatonin receptor)	IC50 [1]	Relative affinity [2]
CCC(=O)NCCc1ccccc1OC	–	789 nM	–	1380
CCCC(=O)NCCc1ccccc1OC	–	748 nM	–	1310
COc1ccc2c(c1)CCC(N)C2.Cl (stereo unspecified)	–	> 100000 nM	–	–

— ChEMBL document CHEMBL1126832, “2-Amido-8-methoxytetralins: a series of nonindolic melatonin-like agents” (J Med Chem, 1993)
